ChEMBL document CHEMBL5257092, “Synthesis and biological evaluation of biaryl alkyl ethers as inhibitors of IDO1” (Bioorg Med Chem Lett, 2023)

Assays:
[1] = Metabolic stability in human liver microsomes assessed as compound remaining at 0.5 uM incubated for 10 mins relative to control; format: ADME, Microsome; conditions: liver microsomes, read-out: Stability
[2] = target: Tryptophan 2,3-dioxygenase (Homo sapiens, UniProt P48775); test: Inhibition of TDO (unknown origin) expressed in HEK cells; format: cell-based
Cytochrome P450 2C8 = target: T1, Cytochrome P450 2C8 (Homo sapiens, UniProt P10632); test: Inhibition of CYP2C8 (unknown origin); format: ADME
T1 sequence (P10632 whole entry): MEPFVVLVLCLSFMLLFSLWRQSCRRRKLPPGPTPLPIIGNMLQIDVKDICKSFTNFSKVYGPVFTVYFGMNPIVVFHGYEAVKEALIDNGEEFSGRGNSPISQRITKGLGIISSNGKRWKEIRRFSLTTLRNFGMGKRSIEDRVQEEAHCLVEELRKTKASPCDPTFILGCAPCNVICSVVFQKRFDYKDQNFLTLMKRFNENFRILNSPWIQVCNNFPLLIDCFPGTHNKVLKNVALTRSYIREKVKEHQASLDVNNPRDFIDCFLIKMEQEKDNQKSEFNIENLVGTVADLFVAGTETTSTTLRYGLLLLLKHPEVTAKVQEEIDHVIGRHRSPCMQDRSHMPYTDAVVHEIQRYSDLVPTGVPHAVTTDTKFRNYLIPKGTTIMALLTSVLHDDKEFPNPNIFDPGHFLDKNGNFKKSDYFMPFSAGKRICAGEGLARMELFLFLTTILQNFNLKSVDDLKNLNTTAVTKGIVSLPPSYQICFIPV

[3] = Metabolic stability in rat liver microsomes assessed as compound remaining at 0.5 uM incubated for 10 mins relative to control; format: ADME, Microsome; conditions: liver microsomes, read-out: Stability
[4] = Metabolic stability in mouse liver microsomes assessed as compound remaining at 0.5 uM incubated for 10 mins relative to control; format: ADME, Microsome; conditions: liver microsomes, read-out: Stability
[5] = target: Indoleamine 2,3-dioxygenase 1 (Homo sapiens, UniProt P14902); test: Inhibition of IDO1 (unknown origin) expressed in human HeLa cells; format: cell-based
[6] = target: Voltage-gated inwardly rectifying potassium channel KCNH2 (Homo sapiens, UniProt Q12809); test: Inhibition of hERG; format: toxicity
Cytochrome P450 2C9 = Cytochrome P450 2C9 (Homo sapiens, UniProt P11712); test: Inhibition of CYP2C9 (unknown origin); format: ADME
[7] = target: T2, Nuclear receptor subfamily 1 group I member 2 (Homo sapiens, UniProt O75469); test: Transactivation of PXR (unknown origin); format: toxicity
T2 sequence (O75469 whole entry): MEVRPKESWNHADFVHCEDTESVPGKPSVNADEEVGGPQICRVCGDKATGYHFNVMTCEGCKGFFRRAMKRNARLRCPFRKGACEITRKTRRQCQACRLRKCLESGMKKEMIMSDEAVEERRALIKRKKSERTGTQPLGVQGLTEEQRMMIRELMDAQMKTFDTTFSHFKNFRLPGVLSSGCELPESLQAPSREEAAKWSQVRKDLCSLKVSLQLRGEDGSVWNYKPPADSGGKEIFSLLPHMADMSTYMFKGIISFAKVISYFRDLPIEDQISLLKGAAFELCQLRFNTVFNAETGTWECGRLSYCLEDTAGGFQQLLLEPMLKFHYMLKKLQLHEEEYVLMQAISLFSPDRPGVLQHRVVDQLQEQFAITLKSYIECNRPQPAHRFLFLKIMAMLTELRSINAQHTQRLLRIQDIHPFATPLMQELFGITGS

Cytochrome P450 2C19 = Cytochrome P450 2C19 (Homo sapiens, UniProt P33261); test: Inhibition of CYP2C19 (unknown origin); format: ADME
Cytochrome P450 2C19, sequence (P33261 whole entry): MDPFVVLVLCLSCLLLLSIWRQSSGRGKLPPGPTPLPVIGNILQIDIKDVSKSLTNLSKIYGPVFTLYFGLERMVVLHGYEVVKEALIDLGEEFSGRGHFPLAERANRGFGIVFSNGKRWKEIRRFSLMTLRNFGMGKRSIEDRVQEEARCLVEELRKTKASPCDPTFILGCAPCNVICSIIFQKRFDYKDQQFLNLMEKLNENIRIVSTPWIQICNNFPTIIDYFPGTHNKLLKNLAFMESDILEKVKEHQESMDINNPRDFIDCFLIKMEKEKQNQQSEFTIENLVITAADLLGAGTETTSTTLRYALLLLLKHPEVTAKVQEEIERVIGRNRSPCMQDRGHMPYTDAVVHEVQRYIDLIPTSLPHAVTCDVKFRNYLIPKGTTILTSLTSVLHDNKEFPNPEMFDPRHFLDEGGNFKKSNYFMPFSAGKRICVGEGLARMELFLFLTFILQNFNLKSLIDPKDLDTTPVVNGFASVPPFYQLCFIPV

Tryptophan 2,3-dioxygenase, sequence (P48775 whole entry): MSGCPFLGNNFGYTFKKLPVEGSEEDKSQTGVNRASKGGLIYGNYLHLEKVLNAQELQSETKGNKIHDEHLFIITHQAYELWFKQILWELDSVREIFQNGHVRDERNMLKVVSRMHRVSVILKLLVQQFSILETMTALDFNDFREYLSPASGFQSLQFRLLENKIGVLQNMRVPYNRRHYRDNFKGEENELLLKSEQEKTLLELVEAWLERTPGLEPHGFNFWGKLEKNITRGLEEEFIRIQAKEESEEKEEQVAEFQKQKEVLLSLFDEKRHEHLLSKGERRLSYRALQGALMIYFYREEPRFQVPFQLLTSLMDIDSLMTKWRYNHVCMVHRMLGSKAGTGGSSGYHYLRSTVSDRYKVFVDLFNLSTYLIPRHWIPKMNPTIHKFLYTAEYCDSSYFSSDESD
Cytochrome P450 2C9, sequence (P11712 whole entry): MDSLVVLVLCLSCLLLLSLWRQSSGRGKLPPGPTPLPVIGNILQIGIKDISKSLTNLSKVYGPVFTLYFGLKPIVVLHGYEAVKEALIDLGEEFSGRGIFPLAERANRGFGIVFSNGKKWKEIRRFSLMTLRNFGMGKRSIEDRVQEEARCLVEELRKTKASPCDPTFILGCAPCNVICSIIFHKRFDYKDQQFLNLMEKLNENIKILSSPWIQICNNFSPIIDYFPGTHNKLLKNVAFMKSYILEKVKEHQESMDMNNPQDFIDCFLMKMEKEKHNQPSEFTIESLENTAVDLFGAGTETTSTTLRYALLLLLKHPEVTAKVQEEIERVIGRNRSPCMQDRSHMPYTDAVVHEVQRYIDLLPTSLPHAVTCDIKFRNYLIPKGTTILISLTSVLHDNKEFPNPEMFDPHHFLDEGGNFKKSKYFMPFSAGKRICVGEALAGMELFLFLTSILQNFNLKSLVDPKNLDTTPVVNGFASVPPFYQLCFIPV
Indoleamine 2,3-dioxygenase 1, sequence (P14902 whole entry): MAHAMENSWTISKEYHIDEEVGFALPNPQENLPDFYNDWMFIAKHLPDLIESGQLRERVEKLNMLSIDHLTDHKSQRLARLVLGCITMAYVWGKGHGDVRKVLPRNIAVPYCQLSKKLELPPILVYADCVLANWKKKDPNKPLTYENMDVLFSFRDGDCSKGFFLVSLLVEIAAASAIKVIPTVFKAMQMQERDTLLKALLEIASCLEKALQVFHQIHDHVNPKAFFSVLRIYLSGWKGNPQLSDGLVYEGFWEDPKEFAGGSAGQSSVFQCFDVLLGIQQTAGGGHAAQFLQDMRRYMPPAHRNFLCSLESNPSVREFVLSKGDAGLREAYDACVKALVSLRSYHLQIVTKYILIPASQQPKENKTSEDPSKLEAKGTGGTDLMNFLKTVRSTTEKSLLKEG
Voltage-gated inwardly rectifying potassium channel KCNH2, sequence (Q12809 whole entry): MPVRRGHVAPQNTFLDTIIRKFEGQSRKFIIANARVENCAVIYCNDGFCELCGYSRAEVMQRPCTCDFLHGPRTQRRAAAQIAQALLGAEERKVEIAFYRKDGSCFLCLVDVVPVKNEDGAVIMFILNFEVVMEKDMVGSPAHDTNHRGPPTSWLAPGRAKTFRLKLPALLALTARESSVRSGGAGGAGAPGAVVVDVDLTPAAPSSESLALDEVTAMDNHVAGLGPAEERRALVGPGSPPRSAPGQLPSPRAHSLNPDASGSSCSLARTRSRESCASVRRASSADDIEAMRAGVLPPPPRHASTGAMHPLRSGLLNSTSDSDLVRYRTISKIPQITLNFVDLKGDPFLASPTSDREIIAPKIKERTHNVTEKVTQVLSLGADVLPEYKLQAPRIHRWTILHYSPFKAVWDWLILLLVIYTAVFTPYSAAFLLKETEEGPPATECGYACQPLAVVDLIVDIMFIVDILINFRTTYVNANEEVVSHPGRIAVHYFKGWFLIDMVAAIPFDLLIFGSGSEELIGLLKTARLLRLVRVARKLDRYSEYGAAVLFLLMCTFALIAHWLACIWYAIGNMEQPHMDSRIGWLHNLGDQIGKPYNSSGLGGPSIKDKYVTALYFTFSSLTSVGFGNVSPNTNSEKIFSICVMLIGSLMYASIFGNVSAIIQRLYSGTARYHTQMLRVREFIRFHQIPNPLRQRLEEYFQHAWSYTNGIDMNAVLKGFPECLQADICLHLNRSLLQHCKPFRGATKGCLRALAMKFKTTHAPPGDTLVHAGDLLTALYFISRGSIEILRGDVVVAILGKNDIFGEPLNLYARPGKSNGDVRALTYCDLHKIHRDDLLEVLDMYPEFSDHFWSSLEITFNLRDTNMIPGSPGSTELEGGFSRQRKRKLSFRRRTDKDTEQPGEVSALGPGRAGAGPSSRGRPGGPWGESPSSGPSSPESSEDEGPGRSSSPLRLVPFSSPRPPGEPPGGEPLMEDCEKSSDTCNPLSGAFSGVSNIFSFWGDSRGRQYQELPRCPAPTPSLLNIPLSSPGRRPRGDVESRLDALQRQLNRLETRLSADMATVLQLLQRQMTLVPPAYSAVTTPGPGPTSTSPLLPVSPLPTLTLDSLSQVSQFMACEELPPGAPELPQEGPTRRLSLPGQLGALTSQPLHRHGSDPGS

| remaining at 10 min, 0.5 µM [1] | IC50 [2] | IC50 (Cytochrome P450 2C8) | remaining at 10 min, 0.5 µM [3] | remaining at 10 min, 0.5 µM [4] | IC50 [5] | IC50 (Cytochrome P450 2C9) | IC50 (Cytochrome P450 2C19) | Structure (SMILES) | IC50 [6] | EC50 [7] |
| --- | --- | --- | --- | --- | --- | --- | --- | --- | --- | --- |
| 78% | > 7.5 µM | 1 µM | 88% | 75% | 0.012 µM | – | – | C=C[C@H]1Oc2c(NC(=O)Nc3ccc(C)cc3)cc(-c3ccccc3-c3nnn[nH]3)cc2[C@@H]1c1ccccc1 (racemic) | – | – |
| 100% | – | 3.2 µM | 74% | 66% | 0.025 µM | – | – | Cc1ccc(NC(=O)Nc2cc(-c3ccccc3-c3nn[nH]n3)cc3c2O[C@@H](C)CCC[C@H]3c2ccccc2)cc1 | – | – |
| – | – | – | – | – | 1.6 µM | – | – | COc1ccc(-c2ccc(OC(C(C)C)C(C)C)c(NC(=O)Nc3ccc(C)cc3)c2)cc1C(=O)O | – | – |
| 94% | > 7.5 µM | 0.27 µM | 86% | 77% | 0.0034 µM | – | – | C=CC1(C=C)Oc2c(NC(=O)Nc3ccc(C)cc3)cc(-c3ccccc3-c3nn[nH]n3)cc2[C@@H]1c1ccccc1 | > 80 µM | – |
| 94% | – | 1.9 µM | 61% | 76% | 0.012 µM | – | – | Cc1ccc(NC(=O)Nc2cc(-c3ccccc3-c3nn[nH]n3)cc3c2O[C@@H](C)C/C=C\[C@H]3c2ccccc2)cc1 | – | – |
| 41% | – | – | 48% | 2% | – | 1.4 µM | – | Cc1ccc(NC(=O)Nc2cc(-c3ccccc3-c3nn[nH]n3)ccc2OC(C(C)C)C(C)C)cc1 | 18 µM | – |
| 82% | – | – | 86% | 68% | 0.031 µM | 6.2 µM | – | CCCOc1c(CCC)cc(-c2ccccc2-c2nn[nH]n2)cc1NC(=O)Nc1ccc(C)cc1 | 40 µM | > 9 µM |
| 52% | – | – | 73% | 42% | 0.0063 µM | – | 0.42 µM | Cc1ccc(NC(=O)Nc2cc(-c3ccccc3-c3nn[nH]n3)cc3c2OC(C)(C)[C@H]3c2ccccc2)cc1 (racemic) | – | – |
| 100% | – | – | 85% | 82% | – | 14 µM | – | CCCOc1c(CCC)cc(-c2ccccc2C(=O)O)cc1NC(=O)Nc1ccc(C)cc1 | > 80 µM | > 20 µM |

Second part, the molecule before the results:

| Structure (SMILES) | remaining at 10 min, 0.5 µM [1] | IC50 [2] | IC50 (Cytochrome P450 2C8) | remaining at 10 min, 0.5 µM [3] | remaining at 10 min, 0.5 µM [4] | IC50 [5] | IC50 (Cytochrome P450 2C9) | IC50 (Cytochrome P450 2C19) | IC50 [6] | EC50 [7] |
| --- | --- | --- | --- | --- | --- | --- | --- | --- | --- | --- |
| COc1ccc(-c2ccc(Oc3ccccc3C(C)(C)C)c(NC(=O)Nc3ccccc3F)c2)cc1C(=O)O | 100% | > 7.5 µM | 5.1 µM | 100% | 61% | – | – | – | – | – |
| COc1ccc(-c2ccc(O[C@@H]3CCCC[C@H]3C)c(NC(=O)Nc3ccc(C)cc3)c2)cc1C(=O)O (racemic) | – | – | – | – | – | > 1 µM | – | – | – | – |
| CC(C)CN(CC(C)C)c1ccc(-c2ccccc2C(=O)O)cc1NC(=O)Nc1ccccc1F | 75% | – | – | 72% | 81% | 0.013 µM | 5.1 µM | – | – | – |
| C=C[C@@H]1Oc2c(NC(=O)Nc3ccc(C)cc3)cc(-c3ccccc3-c3nn[nH]n3)cc2[C@@H]1c1ccccc1 (racemic) | 82% | – | – | 77% | 57% | 0.0059 µM | 0.97 µM | – | – | – |
| CCCC(CCC)Oc1ccc(-c2ccccc2-c2nn[nH]n2)cc1NC(=O)Nc1ccc(C)cc1 | 62% | – | – | 76% | 47% | 0.025 µM | 1.8 µM | – | > 80 µM | – |
| Cc1ccc(NC(=O)Nc2cc(-c3ccccc3-c3nn[nH]n3)cc3c2OCC=CC3c2ccccc2)cc1 (racemic) | 69% | – | – | 66% | 68% | 0.011 µM | 2.8 µM | – | 69 µM | – |
| Cc1ccc(NC(=O)Nc2cc(-c3ccccc3C(=O)O)ccc2O[C@@H]2CCCC[C@H]2C)cc1 (racemic) | – | – | – | – | – | 0.24 µM | – | – | – | – |
